According to the NIST ThermoML archive (doi:10.1021/je049787p):

Assay: xn = mol fraction of the nth substance listed
Conditions: 101.3 kPa, Liquid; for electrical conductivity: Alternating current cell with electrodes

C=CCn1cc[n+](C)c1.[Cl-] [1-allyl-3-methylimidazolium chloride] + CCO
Conditions | electrical conductivity, 293.15 K [S/m] | electrical conductivity, 303.15 K [S/m] | electrical conductivity, 313.15 K [S/m] | electrical conductivity, 323.15 K [S/m] | electrical conductivity, 333.15 K [S/m] | viscosity, 293.15 K [mPa·s] | viscosity, 303.15 K [mPa·s] | viscosity, 313.15 K [mPa·s] | viscosity, 323.15 K [mPa·s] | viscosity, 333.15 K [mPa·s]
x2 = 0 | 0.382 | 0.44 | 0.501 | 0.562 | 0.624 | 66 | 44.7 | 25.3 | 20.6 | 16.2
x2 = 0.1 | 0.485 | 0.543 | 0.604 | 0.66 | 0.722 | 54.6 | 44.1 | 24.6 | 20 | 16
x2 = 0.2 | 0.627 | 0.682 | 0.74 | 0.801 | 0.859 | 45.7 | 42.2 | 24.1 | 19.5 | 15.4
x2 = 0.3 | 0.703 | 0.759 | 0.818 | 0.876 | 0.935 | 39.1 | 30.9 | 22.6 | 18.7 | 15.1
x2 = 0.35 | 0.8 | 0.855 | 0.91 | 0.969 | 1.02 | 30.5 | 25.1 | 19.4 | 16 | 14.4
x2 = 0.45 | 0.884 | 0.943 | 0.999 | 1.06 | 1.11 | 26.4 | 22.1 | 20.1 | 16.7 | 13.1
x2 = 0.5 | 0.952 | 1.01 | 1.06 | 1.11 | 1.17 | 23.2 | 18.1 | 15.3 | 13.6 | 11.2
x2 = 0.55 | 1.03 | 1.09 | 1.14 | 1.2 | 1.25 | 20.4 | 16.3 | 14 | 12.5 | 10.1

C=CCn1cc[n+](C)c1.[Cl-] [1-allyl-3-methylimidazolium chloride] + O
Conditions | electrical conductivity, 293.15 K [S/m] | electrical conductivity, 303.15 K [S/m] | electrical conductivity, 313.15 K [S/m] | electrical conductivity, 323.15 K [S/m] | electrical conductivity, 333.15 K [S/m] | viscosity, 293.15 K [mPa·s] | viscosity, 303.15 K [mPa·s] | viscosity, 313.15 K [mPa·s] | viscosity, 323.15 K [mPa·s] | viscosity, 333.15 K [mPa·s]
x2 = 0 | 0.382 | 0.44 | 0.501 | 0.562 | 0.624 | 66 | 44.7 | 25.3 | 20.6 | 16.2
x2 = 0.3 | 0.817 | 0.874 | 0.93 | 0.985 | 1.04 | 51.3 | 40.7 | 24.1 | 19.6 | 15
x2 = 0.45 | 1.11 | 1.17 | 1.23 | 1.28 | 1.33 | 42.7 | 31.4 | 22.9 | 18.2 | 15.1
x2 = 0.59 | 1.36 | 1.42 | 1.47 | 1.53 | 1.58 | 34.4 | 27.5 | 22.7 | 18.3 | 14.9
x2 = 0.65 | 1.55 | 1.61 | 1.66 | 1.72 | 1.77 | 29.1 | 24.2 | 20.9 | 17.6 | 14.3
x2 = 0.7 | 1.73 | 1.78 | 1.84 | 1.89 | 1.94 | 26.1 | 22 | 19.5 | 16.4 | 13
x2 = 0.75 | 1.84 | 1.89 | 1.95 | 2 | 2.05 | 22.6 | 18.7 | 15.4 | 12.2 | 10.1
x2 = 0.8 | 1.93 | 1.99 | 2.04 | 2.09 | 2.14 | 19.3 | 15.6 | 12.7 | 11.1 | 9.2
